Laboratory results reported in patent US4311699A, “Aminoacid derivatives of cephalosporin compounds” (priority 1980, dated 1982).
Converted amounts (≈) assume the structure as drawn.

Key:
Experiment in all cases: in vitro antibacterial activity, minimal inhibitory concentration
Format in all cases: cell-based
Entero. cloacae = conditions: Enterobacter cloacae
From the text: (§1) The compounds of the invention are new chemical compounds that are used as pharmacological agents and especially as broad spectrum antibacterial agents. They are active in vitro against strains of both gram-positive and gram-negative bacteria.
(§2) Minimal Inhibitory Concentration (μg/ml)

E. coli Brig = conditions: Escherichia coli
From the text: as §1, §2

E. coli Vogel = conditions: Escherichia coli
From the text: as §1, §2

Pseudomonas UI 18 = conditions: UI18; Pseudomonas UI 18, in vitro
From the text: as §1, §2

Strep. fec. = system: Strep. fec.
From the text: as §1, §2

Pseudomonas BRK 12-4-4 = conditions: BRK1244; Pseudomonas BRK 12-4-4, in vitro
From the text: as §1, §2

Prot. vulg. = system: Prot. vulg.
From the text: as §1, §2

Pseudomonas #28 = conditions: Pseudomonas #28, in vitro; read-out: Minimal Inhibitory Concentration
From the text: as §1, §2

Klebs. pneu. = system: Klebs. pneu.
From the text: as §1, §2

Staph. aureus S18733 = conditions: Staphylococcus aureus
From the text: as §1, §2

Serr. marces. = system: Serr. marces.
From the text: as §1, §2

Staph. aureus UC-76 = conditions: Staphylococcus aureus, UC76; Staph. aureus UC-76, in vitro
From the text: as §1, §2

Work on `CC(=O)N[C@@H](C)C(=O)Nc1ccc(-c2ncc(C(=O)N[C@@H](C(=O)NC3C(=O)N4C(C(=O)O)=C(CSc5nnnn5CC(=O)O)CSC34)c3ccccc3)c(O)n2)cc1` (stereo partly drawn) [Example 33] yielded an MIC (Entero. cloacae) of 6.3 µg/mL (≈ 7.57 µM), an MIC (E. coli Brig) of 12.5 µg/mL (≈ 15 µM) and an MIC (E. coli Vogel) of 1.6 µg/mL (≈ 1.92 µM). The MIC (Pseudomonas UI 18) was 12.5 µg/mL (≈ 15 µM), the MIC (Strep. fec.) was > 50 µg/mL and the MIC (Pseudomonas BRK 12-4-4) was 12.5 µg/mL (≈ 15 µM). The MIC (Prot. vulg.) was 3.1 µg/mL (≈ 3.73 µM), the MIC (Pseudomonas #28) was 6.3 µg/mL (≈ 7.57 µM) and the MIC (Klebs. pneu.) was 6.3 µg/mL (≈ 7.57 µM). The MIC (Staph. aureus S18733) was 25 µg/mL (≈ 30.1 µM), the MIC (Serr. marces.) was > 50 µg/mL and the MIC (Staph. aureus UC-76) was 6.3 µg/mL (≈ 7.57 µM).
`CC(=O)N[C@H](C)C(=O)Nc1ccc(-c2ncc(C(=O)N[C@@H](C(=O)NC3C(=O)N4C(C(=O)O)=C(CSc5nnnn5CC(=O)O)CSC34)c3ccccc3)c(O)n2)cc1` (stereo partly drawn) [Example 34, N-[2-[4-(N-Acetyl-D-alanylamino)phenyl]-4-hydroxy-5-pyrimidinylcarbonyl]-7-[D-2-amino-2-phenylacetamido]-3-[[(1-carboxymethyl-1H-tetrazol-5-yl)thio]methyl]-3-cephem-4-carboxylic acid] showed an MIC (Entero. cloacae) of 12.5 µg/mL (≈ 15 µM), an MIC (E. coli Brig) of 12.5 µg/mL (≈ 15 µM) and an MIC (E. coli Vogel) of 3.1 µg/mL (≈ 3.73 µM). For the same compound, the MIC (Pseudomonas UI 18) was 12.5 µg/mL (≈ 15 µM), the MIC (Strep. fec.) was > 50 µg/mL and the MIC (Pseudomonas BRK 12-4-4) was 12.5 µg/mL (≈ 15 µM). The MIC (Prot. vulg.) was 1.6 µg/mL (≈ 1.92 µM), the MIC (Pseudomonas #28) was 12.5 µg/mL (≈ 15 µM) and the MIC (Klebs. pneu.) was 6.3 µg/mL (≈ 7.57 µM). For the same compound, the MIC (Staph. aureus S18733) was 25 µg/mL (≈ 30.1 µM), the MIC (Serr. marces.) was > 50 µg/mL and the MIC (Staph. aureus UC-76) was 12.5 µg/mL (≈ 15 µM).
`CC(=O)N[C@H](C)C(=O)Nc1ccc(-c2ncc(C(=O)N[C@@H](C(=O)NC3C(=O)N4C(C(=O)O)=C(CSc5nnnn5CC(=O)O)CSC34)c3ccc(O)cc3)c(O)n2)cc1` (stereo partly drawn) [Example 37, N-[2-[4-(N-Acetyl-D-alanylamino)phenyl]-4-hydroxy-5-pyrimidinylcarbonyl)-7-[D-2amino-2-(4-hydroxyphenyl)acetamido]-3-[[(1-carboxymethyl-1H-tetrazol-5-yl)thio]methyl]-3-cephem-4-carboxylic acid] gave an MIC (Entero. cloacae) of 12.5 µg/mL (≈ 14.7 µM), an MIC (E. coli Brig) of 12.5 µg/mL (≈ 14.7 µM) and an MIC (E. coli Vogel) of 3.1 µg/mL (≈ 3.66 µM). The MIC (Pseudomonas UI 18) was 6.3 µg/mL (≈ 7.43 µM), the MIC (Strep. fec.) was > 50 µg/mL and the MIC (Pseudomonas BRK 12-4-4) was 12.5 µg/mL (≈ 14.7 µM). The MIC (Prot. vulg.) was 1.6 µg/mL (≈ 1.89 µM), the MIC (Pseudomonas #28) was 12.5 µg/mL (≈ 14.7 µM) and the MIC (Klebs. pneu.) was 12.5 µg/mL (≈ 14.7 µM). For the same compound, the MIC (Staph. aureus S18733) was 25 µg/mL (≈ 29.5 µM), the MIC (Serr. marces.) was > 50 µg/mL and the MIC (Staph. aureus UC-76) was 25 µg/mL (≈ 29.5 µM).
With `C[C@@H](N)C(=O)Nc1ccc(-c2ncc(C(=O)N[C@@H](C(=O)NC3C(=O)N4C(C(=O)O)=C(CSc5nnnn5CC(=O)O)CSC34)c3ccccc3)c(O)n2)cc1` (stereo partly drawn) [Example 38, N-[2-[4-(D-Alanylamino)phenyl]-4-hydroxy-5-pyrimidinylcarbonyl]-7-[D-2-amino-2-phenylacetamido]-3-[[(1-carboxymethyl-1H-tetrazol-5-yl)thio]-methyl]-3-cephem-4-carboxylic acid] the MIC (Entero. cloacae) was 6.3 µg/mL (≈ 7.98 µM), the MIC (E. coli Brig) was 6.3 µg/mL (≈ 7.98 µM) and the MIC (E. coli Vogel) was 0.8 µg/mL (≈ 1.01 µM). The MIC (Pseudomonas UI 18) was 3.1 µg/mL (≈ 3.92 µM), the MIC (Strep. fec.) was > 50 µg/mL and the MIC (Pseudomonas BRK 12-4-4) was 3.1 µg/mL (≈ 3.92 µM). The MIC (Prot. vulg.) was 0.8 µg/mL (≈ 1.01 µM), the MIC (Pseudomonas #28) was 3.1 µg/mL (≈ 3.92 µM) and the MIC (Klebs. pneu.) was 6.3 µg/mL (≈ 7.98 µM). For the same compound, the MIC (Staph. aureus S18733) was 12.5 µg/mL (≈ 15.8 µM), the MIC (Serr. marces.) was 25 µg/mL (≈ 31.7 µM) and the MIC (Staph. aureus UC-76) was 6.3 µg/mL (≈ 7.98 µM).
In the case of `CC(=O)NCC(=O)Nc1ccc(-c2ncc(C(=O)N[C@@H](C(=O)NC3C(=O)N4C(C(=O)O)=C(CSc5nnc(C)s5)CSC34)c3ccccc3)c(O)n2)cc1` (stereo partly drawn) [Example 39, N-[2-[4-(N-Acetylglycylamino)phenyl]-4-hydroxy-5-pyrimidinylcarbonyl]-7-[D-2-amino-2-phenylacetamido]-3-[[(5-methyl-1,3,4-thiadiazol-2-yl)thio]methyl]-3-cephem-4-carboxylic acid], the MIC (Entero. cloacae) is reported as 6.3 µg/mL (≈ 7.98 µM), the MIC (E. coli Brig) is reported as 12.5 µg/mL (≈ 15.8 µM) and the MIC (E. coli Vogel) is reported as 1.6 µg/mL (≈ 2.03 µM). For the same compound, the MIC (Pseudomonas UI 18) was 25 µg/mL (≈ 31.7 µM), the MIC (Strep. fec.) was 50 µg/mL (≈ 63.3 µM) and the MIC (Pseudomonas BRK 12-4-4) was 25 µg/mL (≈ 31.7 µM). For the same compound, the MIC (Prot. vulg.) was 6.3 µg/mL (≈ 7.98 µM), the MIC (Pseudomonas #28) was 12.5 µg/mL (≈ 15.8 µM) and the MIC (Klebs. pneu.) was 1.6 µg/mL (≈ 2.03 µM). The MIC (Staph. aureus S18733) was 3.1 µg/mL (≈ 3.92 µM), the MIC (Serr. marces.) was 50 µg/mL (≈ 63.3 µM) and the MIC (Staph. aureus UC-76) was 0.8 µg/mL (≈ 1.01 µM).
Compound `NC(=O)CC[C@H](N)C(=O)Nc1ccc(-c2ncc(C(=O)N[C@@H](C(=O)NC3C(=O)N4C(C(=O)O)=C(CSc5nnnn5CC(=O)O)CSC34)c3ccccc3)c(O)n2)cc1` (stereo partly drawn) [Example 41, N-[2-[4-(L-Glutaminylamino)phenyl]-4-hydroxy-5-pyrimidinylcarbonyl]-7-[D-2-amino-2-phenylacetamido]-3-[[(1-carboxymethyl-1H-tetrazol-5-yl)thio]methyl]-3-cephem-4-carboxylic acid] has an MIC (Entero. cloacae) of 12.5 µg/mL (≈ 14.8 µM), an MIC (E. coli Brig) of 12.5 µg/mL (≈ 14.8 µM) and an MIC (E. coli Vogel) of 3.1 µg/mL (≈ 3.66 µM). The MIC (Pseudomonas UI 18) was 12.5 µg/mL (≈ 14.8 µM), the MIC (Strep. fec.) was > 50 µg/mL and the MIC (Pseudomonas BRK 12-4-4) was 12.5 µg/mL (≈ 14.8 µM). For the same compound, the MIC (Prot. vulg.) was 1.6 µg/mL (≈ 1.89 µM), the MIC (Pseudomonas #28) was 12.5 µg/mL (≈ 14.8 µM) and the MIC (Klebs. pneu.) was 3.1 µg/mL (≈ 3.66 µM). The MIC (Staph. aureus S18733) was 25 µg/mL (≈ 29.5 µM), the MIC (Serr. marces.) was 50 µg/mL (≈ 59 µM) and the MIC (Staph. aureus UC-76) was 12.5 µg/mL (≈ 14.8 µM).
For `O=C(O)Cn1nnnc1SCC1=C(C(=O)O)N2C(=O)C(NC(=O)[C@H](NC(=O)c3cnc(-c4ccc(NC(=O)CN5CCCC5=O)cc4)nc3O)c3ccccc3)C2SC1` (stereo partly drawn) [Example 42], the MIC (Entero. cloacae) was 6.3 µg/mL (≈ 7.47 µM), the MIC (E. coli Brig) was 6.3 µg/mL (≈ 7.47 µM) and the MIC (E. coli Vogel) was 3.1 µg/mL (≈ 3.67 µM). For the same compound, the MIC (Pseudomonas UI 18) was 6.3 µg/mL (≈ 7.47 µM), the MIC (Strep. fec.) was > 50 µg/mL and the MIC (Pseudomonas BRK 12-4-4) was 12.5 µg/mL (≈ 14.8 µM). For the same compound, the MIC (Prot. vulg.) was 1.6 µg/mL (≈ 1.9 µM), the MIC (Pseudomonas #28) was 6.3 µg/mL (≈ 7.47 µM) and the MIC (Klebs. pneu.) was 3.1 µg/mL (≈ 3.67 µM). The MIC (Staph. aureus S18733) was 25 µg/mL (≈ 29.6 µM), the MIC (Serr. marces.) was 50 µg/mL (≈ 59.3 µM) and the MIC (Staph. aureus UC-76) was 12.5 µg/mL (≈ 14.8 µM).
